Assay results as given in US20170234881A1, “METHODS OF DIAGNOSING AND TREATING CANCER” (INSERM ( INSTITUT NATIONAL DE LA SANTÉ ET DE LA RECHERCHE …, priority 2014, published 2017).

Columns and labels:
shHSD2 MCF7 cells = assay: Clonogenic assay of shHSD2 MCF7 cells; type: cell-based, human; details: OCDO 1 μM
Protocol: FIG. 7. Knock-down of 11βHSD2 decreases cell proliferation, invasion and survival in MCF7 cells as well as tumor growth and OCDO reverses these effects. shC or shHSD2 MCF7 cells were analyzed as followed: (A) The proliferation of sh-C or shHSD2 cells treated or not with OCDO 5 μM 24 h was measured using quantification of DNA BrDU incorporation as described in FIG. 2A. (B) The proliferation of sh-C or shHSD2 cells treated or not with increasing concentration of cortisone for 24 h was measured as in (A). (C) The invasiveness of sh-C or shHSD2 cells treated or not with OCDO 5 μM for 72 h was assayed using matrigel-coated filters. (D) the formation of colony by sh-C or shHSD2 cells treated or not with OCDO 1 μM was quantified as described in FIG. 6F. […] Animals were monitored for tumor growth twice a week. […] (F) Mean (±s.e.m) of Ki67 positive cell number determined from IHC staining of shC or shHSD2 MCF7 tumor sections from (E), n=8, *P<0.05 (Student's t-test) using HistoQuant, Pannoramic Viewer (3DHistech).
Cells, MCF7-sh11bHSD2 (5×10^3), MCF7-shC (5×10^3) or TSA (3×10^3) were seeded in duplicate in […] diameter dish. […] At day 10, colonies were fixed with 3.7% PFA, stained with an aqueous crystal violet solution (0.05%) and the number of colonies was counted.

MDA-MB231 cells = assay: Growth of MDA-MB231 tumors implanted s.c. into mice; type: in vivo; details: human MDA-MB231 tumors, OCDO 16 μg/kg s.c.
Protocol: FIG. 2. OCDO is a tumor promoter in vitro and in vivo and its inhibition contributes to the anti-tumor effects of Tam and DDA. (A, B) Histograms representing the effect of OCDO or 17β-estrogen (E2) on MCF7 (A) and TS/A (B) cell proliferation after 24 h treatment using a colorimetric immunoassay measuring BrDU incorporation in DNA (C, D) Histogram representing the effect of OCDO on MCF7 (C) and TS/A (D) cell invasion. Data are the mean of three separate experiments (±s.e.m), *P<0.05, **P<0.01, ***P<0.001 (Student's t-test). (E, F) Mice were implanted s.c. with MCF7 (E) or TS/A (F) cells and animals (8 per group) were treated s.c. every day starting on the day of implantation with either the solvent vehicle or OCDO (16 μg/kg for MCF7 or 50 μg/kg for TS/A). Animals were monitored for tumour growth twice a week. […] (G) Mean (±s.e.m) of Ki67 positive cell number determined from IHC staining of MCF7 tumor sections from (E), n=8, *P<0.05 (Student's t-test) using HistoQuant, Pannoramic Viewer (3DHistech). […]
Exponentially growing MCF7, ShMCF7, E0771, MDA-MB231, MDA-MB468 and TS/A cells were collected, washed twice in PBS and resuspended in PBS. […] Animals were examined daily, and body weights were measured twice per week. In all the experiments, the tumor volume was determined by direct measurement with a caliper and was calculated using the formula (width^2×length)/2. […]

MCF7 cells = assay: Cell invasion assay (matrigel-coated filters), MCF7; type: cell-based, human; details: concentration-dependent, level reached
Protocol: FIG. 2. OCDO is a tumor promoter in vitro and in vivo and its inhibition contributes to the anti-tumor effects of Tam and DDA. (A, B) Histograms representing the effect of OCDO or 17β-estrogen (E2) on MCF7 (A) and TS/A (B) cell proliferation after 24 h treatment using a colorimetric immunoassay measuring BrDU incorporation in DNA (C, D) Histogram representing the effect of OCDO on MCF7 (C) and TS/A (D) cell invasion. Data are the mean of three separate experiments (±s.e.m), *P<0.05, **P<0.01, ***P<0.001 (Student's t-test). (E, F) Mice were implanted s.c. with MCF7 (E) or TS/A (F) cells and animals (8 per group) were treated s.c. every day starting on the day of implantation with either the solvent vehicle or OCDO (16 μg/kg for MCF7 or 50 μg/kg for TS/A). Animals were monitored for tumour growth twice a week. The data are representative of three independent experiments. The mean tumor volume±s.e.m is shown, *P<0.05, **P<0.01, ***P<0.001 (analysis of variance (ANOVA), Dunnett's post test). (G) Mean (±s.e.m) of Ki67 positive cell number determined from IHC staining of MCF7 tumor sections from (E), n=8, *P<0.05 (Student's t-test) using HistoQuant, Pannoramic Viewer (3DHistech). […]
Invasion assays were carried out using Bio-Coat migration chambers (BD Falcon) with 8 μm filters previously coated with matrigel. […] The entire membranes were mounted on glass slides, and were counted under a microscope. […]

TS/A tumors = assay: Growth of TS/A tumors implanted s.c. into mice; type: in vivo
Protocol: FIG. 2. OCDO is a tumor promoter in vitro and in vivo and its inhibition contributes to the anti-tumor effects of Tam and DDA. (A, B) Histograms representing the effect of OCDO or 17β-estrogen (E2) on MCF7 (A) and TS/A (B) cell proliferation after 24 h treatment using a colorimetric immunoassay measuring BrDU incorporation in DNA (C, D) Histogram representing the effect of OCDO on MCF7 (C) and TS/A (D) cell invasion. Data are the mean of three separate experiments (±s.e.m), *P<0.05, **P<0.01, ***P<0.001 (Student's t-test). (E, F) Mice were implanted s.c. with MCF7 (E) or TS/A (F) cells and animals (8 per group) were treated s.c. every day starting on the day of implantation with either the solvent vehicle or OCDO (16 μg/kg for MCF7 or 50 μg/kg for TS/A). Animals were monitored for tumour growth twice a week. The data are representative of three independent experiments. The mean tumor volume±s.e.m is shown, *P<0.05, **P<0.01, ***P<0.001 (analysis of variance (ANOVA), Dunnett's post test). (G) Mean (±s.e.m) of Ki67 positive cell number determined from IHC staining of MCF7 tumor sections from (E), n=8, *P<0.05 (Student's t-test) using HistoQuant, Pannoramic Viewer (3DHistech). (H) Representative Ki67 staining of TS/A tumor sections from (F) showing increased staining in OCDO-treated tumor compared with control-treated tumor. (I, J, K). Murine E0771(I), or human MDA-MB231 (J) or MDA-MB468 (K) cells implanted s.c. into mice (8 per group) and animals were treated s.c. with either the solvent vehicle or OCDO (16 μg/kg for MDA-MB-231 and MDA-MB-468 or 50 μg/kg for E0771). The data are representative of two independent experiments. Statistical analysis was performed as in E and F. (L) Mice were implanted s.c. with TS/A cells and animals (8 per group) were treated s.c. every day with either the solvent vehicle, OCDO (50 μg/kg), Tam (56 mg/kg), DDA (20 mg/kg) or the combination of Tam (56 mg/kg) +OCDO (50 μg/kg) or DDA (20 mg/kg)+OCDO (50 μg/kg). The data are representative of three independent experiments. Statistical analysis was performed as in E and F.
Exponentially growing MCF7, ShMCF7, E0771, MDA-MB231, MDA-MB468 and TS/A cells were collected, washed twice in PBS and resuspended in PBS. TS/A and E9771 tumours were prepared by subcutaneous transplantation of 35×10^3 cells or 3×10^5 cells respectively in 100 μl PBS into the flank of BALB/c or C57B16 mice. For other tumors, 5 to 10×10^6 cells in 200 μl PBS/matrigel (1/1) were injected into the flank of NMRI nude mice. Animals were treated as indicated in the legends. Animals were examined daily, and body weights were measured twice per week. In all the experiments, the tumor volume was determined by direct measurement with a caliper and was calculated using the formula (width^2×length)/2. Tumors were either frozen in liquid nitrogen or fixed in 10% neutral-buffered formalin and embedded in paraffin for immunohistochemical analysis. Paraffin sections were stained with haematoxylin and eosin for histomorphological analyses. Immunohistochemical staining was done on paraffin-embedded tissue sections, using a specific Ki67 antibody (Dako).
We then assayed the anti-growth effect of Tam or DDA against TS/A tumors in the absence and presence of OCDO. As above, TS/A tumors implanted into immunocompetent mice were treated s.c. every day either with either the solvent vehicle (control), OCDO (50 μg/kg), Tam (56 mg/kg), DDA (20 mg/kg) or the combination of Tam (56 mg/kg)+OCDO (50 μg/kg) or DDA (20 mg/kg) +OCDO (50 μg/kg).

## CC(C)CCC[C@@H](C)[C@H]1CC[C@H]2[C@@H]3CC(=O)[C@@]4(O)C[C@@H](O)CC[C@]4(C)[C@H]3CC[C@]12C [OCDO, 6-oxo-cholestan-3β,5α-diol]
shHSD2 MCF7 cells
  effect on the inhibition of cell survival (colony formation) mediated by 11βHSD2 knock-down: reversed the inhibition
MDA-MB231 cells
  tumor growth: stimulates the growth
MCF7 cells
  invasiveness compared with the control: 6 fold
TS/A tumors; TS/A tumors in immunocompetent mice, OCDO 50 μg/kg s.c. every day
  tumor growth compared with the control group: significantly increased
TS/A tumors; TS/A tumors, IHC
  proliferative marker Ki67 in tumors compared with control-treated tumors: increased
TS/A tumors; after 13 days of treatment, OCDO 50 μg/kg s.c. every day, p<0.01
  enhancement of TS/A tumor growth compared with the control group: 140%
